Reference: PubChem BioAssay (NCI)
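How tested: cells in 96-well plates exposed to compound for 48 hours at five concentrations. At the GI50, growth is halved. TGI denotes the concentration required for complete inhibition of growth.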

Columns and labels:
Assay in all cases: inhibition of tumour cell growth, NCI panel, 48 h
OVCAR-5 ovarian = tested on: OVCAR-5 ovarian
DU-145 prostate = tested on: DU-145 prostate
TK-10 renal = tested on: TK-10 renal
KM12 colon = tested on: KM12 colon
NCI-H460 lung = tested on: NCI-H460 lung
T-47D breast = tested on: T-47D breast
COLO 205 colon = tested on: COLO 205 colon
M14 melanoma = tested on: M14 melanoma
OVCAR-4 ovarian = tested on: OVCAR-4 ovarian
MDA-MB-231 breast = tested on: MDA-MB-231 breast
SF-268 CNS = tested on: SF-268 CNS
CAKI-1 renal = tested on: CAKI-1 renal
HCC-2998 colon = tested on: HCC-2998 colon
NCI-H23 lung = tested on: NCI-H23 lung
A498 renal = tested on: A498 renal
SF-295 CNS = tested on: SF-295 CNS
HT29 colon = tested on: HT29 colon
SNB-19 CNS = tested on: SNB-19 CNS
HL-60(TB) leukemia = tested on: HL-60(TB) leukemia
UACC-257 melanoma = tested on: UACC-257 melanoma
EKVX NSCLC = tested on: EKVX NSCLC
OVCAR-8 ovarian = tested on: OVCAR-8 ovarian
UO-31 renal = tested on: UO-31 renal
LOX IMVI melanoma = tested on: LOX IMVI melanoma
BT-549 breast = tested on: BT-549 breast
SK-MEL-28 melanoma = tested on: SK-MEL-28 melanoma
HOP-92 NSCLC = tested on: HOP-92 NSCLC
K-562 leukemia = tested on: K-562 leukemia
SR leukemia = tested on: SR leukemia
A549 NSCLC = tested on: A549 NSCLC
SNB-75 CNS = tested on: SNB-75 CNS
UACC-62 melanoma = tested on: UACC-62 melanoma
SW-620 colon = tested on: SW-620 colon
MALME-3M melanoma = tested on: MALME-3M melanoma
HCT-116 colon = tested on: HCT-116 colon
SF-539 CNS = tested on: SF-539 CNS
786-0 renal = tested on: 786-0 renal
NCI-H522 lung = tested on: NCI-H522 lung
RPMI-8226 leukemia = tested on: RPMI-8226 leukemia
IGROV1 ovarian = tested on: IGROV1 ovarian
SN12C renal = tested on: SN12C renal
SK-MEL-2 melanoma = tested on: SK-MEL-2 melanoma
MCF7 breast = tested on: MCF7 breast
SK-MEL-5 melanoma = tested on: SK-MEL-5 melanoma
PC-3 prostate = tested on: PC-3 prostate
HCT-15 colon = tested on: HCT-15 colon
MDA-MB-435 = tested on: MDA-MB-435
CCRF-CEM leukemia = tested on: CCRF-CEM leukemia
MOLT-4 leukemia = tested on: MOLT-4 leukemia
HOP-62 NSCLC = tested on: HOP-62 NSCLC
SK-OV-3 ovarian = tested on: SK-OV-3 ovarian
NCI/ADR-RES ovarian = tested on: NCI/ADR-RES ovarian
U251 CNS = tested on: U251 CNS
ACHN renal = tested on: ACHN renal
HS 578T breast = tested on: HS 578T breast
OVCAR-3 ovarian = tested on: OVCAR-3 ovarian
NCI-H226 lung = tested on: NCI-H226 lung
RXF 393 renal = tested on: RXF 393 renal

COc1ncc(-c2ccc3nccc(C#CCCCCC(=O)NO)c3c2)cc1NS(=O)(=O)c1ccc(F)cc1F
GI50 (OVCAR-5 ovarian): 63.4 nM | TGI (OVCAR-5 ovarian): 8200 nM | GI50 (DU-145 prostate): 134 nM | TGI (DU-145 prostate): 12600 nM | GI50 (TK-10 renal): 29.4 nM | TGI (TK-10 renal): 1370 nM | GI50 (KM12 colon): 180 nM | TGI (KM12 colon): 12100 nM | GI50 (NCI-H460 lung): 109 nM | TGI (NCI-H460 lung): 11200 nM | TGI (T-47D breast): 55 nM | GI50 (COLO 205 colon): 89.7 nM | TGI (COLO 205 colon): 2180 nM | GI50 (M14 melanoma): 148 nM | TGI (M14 melanoma): 3620 nM | GI50 (OVCAR-4 ovarian): 1720 nM | TGI (OVCAR-4 ovarian): 14100 nM | GI50 (MDA-MB-231 breast): 998 nM | TGI (MDA-MB-231 breast): 7850 nM | GI50 (SF-268 CNS): 121 nM | TGI (SF-268 CNS): 3770 nM | GI50 (CAKI-1 renal): 875 nM | TGI (CAKI-1 renal): 11800 nM | GI50 (HCC-2998 colon): 75.8 nM | TGI (HCC-2998 colon): 4260 nM | GI50 (NCI-H23 lung): 984 nM | TGI (NCI-H23 lung): 13000 nM | GI50 (A498 renal): 30.3 nM | TGI (A498 renal): 96.2 nM | GI50 (SF-295 CNS): 70.1 nM | TGI (SF-295 CNS): 2030 nM | GI50 (HT29 colon): 55 nM | TGI (HT29 colon): 10500 nM | GI50 (SNB-19 CNS): 147 nM | TGI (SNB-19 CNS): 5980 nM | GI50 (HL-60(TB) leukemia): 66.5 nM | TGI (HL-60(TB) leukemia): 3060 nM | GI50 (UACC-257 melanoma): 198 nM | TGI (UACC-257 melanoma): 1440 nM | GI50 (EKVX NSCLC): 56.9 nM | TGI (EKVX NSCLC): 4090 nM | GI50 (OVCAR-8 ovarian): 131 nM | TGI (OVCAR-8 ovarian): 4080 nM | GI50 (UO-31 renal): 73.7 nM | TGI (UO-31 renal): 4000 nM | GI50 (LOX IMVI melanoma): 96.8 nM | TGI (LOX IMVI melanoma): 1900 nM | GI50 (BT-549 breast): 53.5 nM | TGI (BT-549 breast): 2770 nM | GI50 (SK-MEL-28 melanoma): 69.2 nM | TGI (SK-MEL-28 melanoma): 2100 nM | GI50 (HOP-92 NSCLC): 15.6 nM | TGI (HOP-92 NSCLC): 106 nM | GI50 (K-562 leukemia): 1980 nM | TGI (K-562 leukemia): 16700 nM | GI50 (SR leukemia): 146 nM | TGI (SR leukemia): 4240 nM | GI50 (A549 NSCLC): 104 nM | TGI (A549 NSCLC): 3170 nM | GI50 (SNB-75 CNS): 54.3 nM | TGI (SNB-75 CNS): 827 nM | GI50 (UACC-62 melanoma): < 19.5 nM | GI50 (SW-620 colon): 158 nM | TGI (SW-620 colon): 3900 nM | GI50 (MALME-3M melanoma): 60.4 nM | TGI (MALME-3M melanoma): 270 nM | GI50 (HCT-116 colon): 123 nM | TGI (HCT-116 colon): 2800 nM | GI50 (SF-539 CNS): 68.9 nM | TGI (SF-539 CNS): 1340 nM | GI50 (786-0 renal): 81.9 nM | TGI (786-0 renal): 3680 nM | GI50 (NCI-H522 lung): 92.9 nM | TGI (NCI-H522 lung): 2310 nM | GI50 (RPMI-8226 leukemia): 1020 nM | TGI (RPMI-8226 leukemia): 4790 nM | GI50 (IGROV1 ovarian): < 14.6 nM | TGI (IGROV1 ovarian): 559 nM | TGI (SN12C renal): 17500 nM | GI50 (SK-MEL-2 melanoma): 106 nM | TGI (SK-MEL-2 melanoma): 1770 nM | GI50 (MCF7 breast): 18.6 nM | TGI (MCF7 breast): 4450 nM | GI50 (SK-MEL-5 melanoma): 80.1 nM | TGI (SK-MEL-5 melanoma): 1340 nM | GI50 (PC-3 prostate): 54.5 nM | TGI (PC-3 prostate): 4800 nM | GI50 (HCT-15 colon): 150 nM | TGI (HCT-15 colon): 13000 nM | GI50 (MDA-MB-435): 132 nM | TGI (MDA-MB-435): 4830 nM | GI50 (CCRF-CEM leukemia): 105 nM | TGI (CCRF-CEM leukemia): 5650 nM | GI50 (MOLT-4 leukemia): 62.2 nM | TGI (MOLT-4 leukemia): 1420 nM | GI50 (HOP-62 NSCLC): 125 nM | TGI (HOP-62 NSCLC): 10000 nM | GI50 (SK-OV-3 ovarian): 35 nM | TGI (SK-OV-3 ovarian): 180 nM | GI50 (NCI/ADR-RES ovarian): 3590 nM | TGI (NCI/ADR-RES ovarian): 30000 nM | GI50 (U251 CNS): 128 nM | TGI (U251 CNS): 2670 nM | GI50 (ACHN renal): 111 nM | TGI (ACHN renal): 12300 nM | GI50 (HS 578T breast): 30.7 nM | TGI (HS 578T breast): 1170 nM | GI50 (OVCAR-3 ovarian): 65.1 nM | TGI (OVCAR-3 ovarian): 2520 nM | GI50 (NCI-H226 lung): 1590 nM | TGI (NCI-H226 lung): 15500 nM | GI50 (RXF 393 renal): 46.6 nM | TGI (RXF 393 renal): 750 nM
